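Cells were grown in 96-well plates and exposed to each compound for 48 hours at five concentrations; endpoints were interpolated linearly between bracketing concentrations, or set to the highest concentration if not reached. Abbreviation: GI50, concentration required for 50% inhibition of growth. TGI: total growth inhibition.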
Assays:
Test in all cases: NCI tumour cell line growth inhibition, 48 h
[1] = test system: 786-0 renal
[2] = test system: EKVX NSCLC
[3] = test system: LOX IMVI melanoma
[4] = test system: M14 melanoma
[5] = test system: SF-539 CNS
[6] = test system: SK-MEL-28 melanoma
[7] = test system: SN12C renal
[8] = test system: SR leukemia
[9] = test system: UO-31 renal
[10] = test system: MALME-3M melanoma

Row | SMILES | GI50 [1] | TGI [1] | GI50 [2] | TGI [2] | GI50 [3] | TGI [3] | GI50 [4] | TGI [4] | GI50 [5] | TGI [5] | GI50 [6] | TGI [6] | GI50 [7] | TGI [7] | GI50 [8] | TGI [8] | GI50 [9] | TGI [9] | TGI [10] | GI50 [10]
1 | CO/N=C(\C)c1ccc(Nc2cc(-c3ccccc3)nc3c(O)cccc23)cc1 | 16.3 µM | 35.2 µM | 15.9 µM | 41.7 µM | 14.3 µM | 27.9 µM | 14.6 µM | 29.6 µM | 17.6 µM | 32.1 µM | 25.5 µM | 84.8 µM | 16 µM | 30.6 µM | 5.51 µM | 34.7 µM | 19.6 µM | 42.5 µM |  | 
2 | CC(=O)Oc1ccc(O)c(O)c1C/C=C(\C)CC/C=C(\C)CC/C=C(\C)CCC=C(C)C |  | 2.83 µM |  | 3.81 µM |  | 0.694 µM |  | 4.98 µM |  | 1.62 µM |  | 2.19 µM |  | 0.868 µM |  |  |  | 2.74 µM | 0.782 µM | 
3 | Cc1ccc(NC(=O)/C(=N\Nc2ccc([N+](=O)[O-])cc2[N+](=O)[O-])C2C(=O)NC(=O)NC2=O)cc1 |  | > 100 µM |  |  |  | > 100 µM |  | > 100 µM |  | 90.9 µM |  | > 100 µM |  | > 100 µM |  | > 100 µM |  | > 100 µM | > 100 µM | 
4 | O=NNc1nc(-c2cccnc2)nc2ccccc12 |  | > 100 µM |  | > 100 µM |  |  |  | > 100 µM |  | > 100 µM |  | > 100 µM |  | > 100 µM |  |  |  | 32.8 µM |  | 
5 | COc1ccc(-c2cn(-c3ccccc3)c(-c3ccccc3)n2)cc1OC | 3.56 µM | 13.5 µM | 12.1 µM | 29.1 µM | 3.08 µM | 11.7 µM | 5.69 µM | 20 µM | 2.14 µM | 6.16 µM | 12 µM | 26.2 µM | 5.2 µM | 17.8 µM |  |  | 2.7 µM | 14.4 µM | 22.7 µM | 9.17 µM
6 | O=C1C2=C(c3ccccc31)C(c1ccccc1)NC(=S)N2 (stereo not drawn) |  | 85 µM |  | > 100 µM |  |  |  | > 100 µM |  | 46.3 µM |  | > 100 µM |  | > 100 µM |  |  |  | > 100 µM | > 100 µM | 
7 | N#C/C(=C\c1cccc(O)c1)C(N)=O |  | > 100 µM |  | > 100 µM |  | > 100 µM |  | > 100 µM |  | > 100 µM |  | > 100 µM |  | > 100 µM |  |  |  | > 100 µM | > 100 µM | 
8 | CCCCCCCCCCCC[n+]1ccc(CCCCCCCCC)cc1 | 1.38 µM | 3.07 µM |  |  |  |  |  |  |  |  | 1.31 µM | 2.86 µM |  |  | 1.47 µM | 4.55 µM | 1.27 µM | 2.59 µM |  | 
9 | COc1nc2nccc-2c2occn12 |  | > 100 µM |  | > 100 µM |  | > 100 µM |  | > 100 µM |  | > 100 µM |  | > 100 µM |  | > 100 µM |  |  |  | > 100 µM | > 100 µM | 
10 | Fc1ccc2[nH]c3c(NCCCN4CCOCC4)ncnc3c2c1 | > 100 µM | > 100 µM |  |  | 30.7 µM | > 100 µM | 36 µM | > 100 µM | 21.3 µM | 62.7 µM | 70.4 µM | > 100 µM | 77.8 µM | > 100 µM | 28.8 µM | > 100 µM | 33 µM | > 100 µM | 89.1 µM | 27.4 µM
11 | Clc1nc(Cl)c2ncn(Cc3ccc(COc4cccc(OCc5ccc(Cn6cnc7c(Cl)nc(Cl)nc76)cc5)c4)cc3)c2n1 | 36.2 µM | > 100 µM | 91.4 µM | > 100 µM | 2.47 µM | 12.7 µM | 21.9 µM | 85.9 µM | > 100 µM | > 100 µM | 52.8 µM | > 100 µM | 92.4 µM | > 100 µM |  |  | 51.5 µM | > 100 µM | > 100 µM | 73.1 µM
12 | CCOC(=O)C(=O)Nc1c(C)cccc1C |  | > 100 µM |  | > 100 µM |  | > 100 µM |  | > 100 µM |  | > 100 µM |  | > 100 µM |  | > 100 µM |  |  |  | > 100 µM | > 100 µM | 
13 | CC(=O)OCC1OC(n2ccc(=O)[nH]c2=O)C(OC(C)=O)C1OC(C)=O (stereo not drawn) | > 100 µM | > 100 µM | > 100 µM | > 100 µM | > 100 µM | > 100 µM | > 100 µM | > 100 µM | > 100 µM | > 100 µM | > 100 µM | > 100 µM | > 100 µM | > 100 µM |  |  | > 100 µM | > 100 µM | > 100 µM | > 100 µM
14 | CCN(Cc1ccccc1OC)c1ccc(CO)c(Cl)c1 | 13 µM | 26.2 µM |  |  | 15.1 µM | 29.6 µM | 12.4 µM | 25.5 µM | 14.4 µM | 27.8 µM | 10.3 µM | 24.8 µM | 11.1 µM | 23.5 µM | 8.53 µM | 40.9 µM | 11.5 µM | 24.7 µM | 27.5 µM | 12.9 µM
15 | COc1cc(CNc2ccc(C(C)C)cc2)cc(OC)c1OC |  | 30.2 µM |  | > 100 µM |  | 29.9 µM |  |  |  | 35.8 µM |  | 72.7 µM |  | 31.4 µM |  |  |  | 45.3 µM | 45.6 µM | 
16 | O=C(O)c1cc(=O)c2[nH]c3ccccc3c2s1 |  | > 100 µM |  | > 100 µM |  |  |  | > 100 µM |  |  |  | > 100 µM |  | > 100 µM |  |  |  | > 100 µM | > 100 µM | 
17 | COc1ccc(NC(=O)c2cc(OC)c(OC)c(OC)c2)cc1 |  | > 100 µM |  | > 100 µM |  | > 100 µM |  | > 100 µM |  | > 100 µM |  | 94.4 µM |  | > 100 µM |  |  |  | > 100 µM | 97.7 µM | 
18 | C[C@@H]1COCCN1c1cc(C2(S(C)(=N)=O)CC2)nc(-c2ccnc3[nH]ccc23)n1 (stereo partly drawn) | 1.25 µM | 96.8 µM |  |  | 1.63 µM | 12.7 µM |  |  | 0.86 µM | 3.5 µM | 5.59 µM | 25.8 µM | 4.77 µM | 89.6 µM |  |  | 2.55 µM | 22.8 µM | 34 µM | 5.55 µM
19 | CN(C)CCOc1ccc2c(c1)C/C(=C/c1ncc([N+](=O)[O-])n1C)C2=O |  | 26.4 µM |  | 18 µM |  | 14.4 µM |  | 5.71 µM |  | 21.2 µM |  | 33.4 µM |  | 9.78 µM |  |  |  | 3.61 µM | 5.23 µM | 
20 | CC[C@H](CC#N)OC(=O)N[C@@H](C)c1cccc(NC(=O)Nc2ccc(-c3cnco3)c(OC)c2)c1 | 0.188 µM | > 93 µM |  |  | 0.0242 µM | 24.8 µM | 0.0753 µM | 30.5 µM | 0.0386 µM | 28 µM | 0.0505 µM | 21.8 µM | 0.111 µM | 79.3 µM | 0.0289 µM | 4.3 µM | 0.446 µM | 10.3 µM | 31.2 µM | 0.161 µM
21 | CCc1cc(O)c(Cl)c(C)c1Cl |  | 30.8 µM |  | 33.7 µM |  | 31.8 µM |  | 63.6 µM |  | 34.8 µM |  | 36.6 µM |  | 29.5 µM |  |  |  | 33.2 µM | 42.7 µM | 
22 | CC(=O)OC1c2ccccc2CCCCCCC12OCCO2 (stereo not drawn) |  | > 100 µM |  |  |  | > 100 µM |  | > 100 µM |  | > 100 µM |  | > 100 µM |  | > 100 µM |  |  |  | > 100 µM | > 100 µM | 
23 | NNC(=O)CCC(=O)NC1C2CC3CC(C2)CC1C3 (stereo not drawn) |  | > 100 µM |  |  |  | > 100 µM |  | > 100 µM |  | > 100 µM |  | > 100 µM |  | > 100 µM |  |  |  | > 100 µM | > 100 µM | 
24 | COc1ccc(C2S/C(=C\c3ccc(O)cc3)C(=O)N2NC(=O)Cc2ccccc2)cc1 (stereo not drawn) |  | > 100 µM |  |  |  | > 100 µM |  | > 100 µM |  | > 100 µM |  | > 100 µM |  | > 100 µM |  | > 100 µM |  | > 100 µM | > 100 µM | 
25 | COc1cc([C@@H]2c3cc4c(cc3[C@@H](NC(=O)c3ccccc3)C3COC(=O)[C@@H]32)OCO4)cc(OC)c1O (stereo partly drawn) |  | 21.9 µM |  | 87.1 µM |  | 25.1 µM |  | 24.8 µM |  | 24.8 µM |  | 87.7 µM |  | 9.81 µM |  |  |  | 23.5 µM | 26.6 µM | 
26 | COc1ccc(O)c(C#N)c1C#N |  | > 100 µM |  | > 100 µM |  | > 100 µM |  | > 100 µM |  | > 100 µM |  |  |  | > 100 µM |  |  |  | > 100 µM | > 100 µM | 
27 | CC(C)NC(=O)OCCS(=O)c1c(Cl)c(Cl)nn1C (stereo not drawn) |  | 72.6 µM |  | > 100 µM |  | > 100 µM |  | 39.4 µM |  | > 100 µM |  | > 100 µM |  | > 100 µM |  | > 100 µM |  | > 100 µM |  | 
28 | CCOP(=O)(OCC)C(NC(c1ccccc1)c1ccccc1)c1cccc2ccccc12 (stereo not drawn) | 2.9 µM | 9.64 µM | 16.2 µM | 35.5 µM |  |  | 3.03 µM | 7.71 µM | 23 µM | 41.4 µM |  |  | 2.68 µM | 8.65 µM | 4.91 µM | > 100 µM | 12.3 µM | > 100 µM |  | 
29 | CC(=O)c1cc([N+](=O)[O-])ccc1OCC(=O)O |  | > 100 µM |  | > 100 µM |  | > 100 µM |  | > 100 µM |  | > 100 µM |  | > 100 µM |  | > 100 µM |  |  |  | > 100 µM | > 100 µM | 
30 | CCCCCCCCCCCCCC(=O)CBr |  | 11.3 µM |  | 39.9 µM |  | 23 µM |  | 26.6 µM |  | 30.7 µM |  | 30.7 µM |  | 43.3 µM |  |  |  | 24 µM | 23.6 µM | 
